Read-outs that look alike come from different tables or passages of the source.

In one assay the test system is Pyricularia oryzae. The format is cell-based. Conditions: 7 days after inoculation.
In the next assay the test system is Colleotrichum truncatum. Nature of the assay: Activity against Colleotrichum truncatum in the microtiterplate test. The format is cell-based. The conditions noted are these: 168 h, read-out: Observed efficacy.
The next assay concerns Alternaria solani. Conditions: 4 ppm; 7 days after inoculation.
Another assay relates to Fusarium culmorum. Nature of the assay: Activity against Fusarium culmorum in the microtiterplate test. Conditions: 0.063 ppm; 7 days after inoculation. Format: cell-based.
The mark [1] stands for this setting: 4 ppm, 7 days after inoculation.

For the compound `Fc1ccc([C@]2(Cn3cncn3)O[C@H]2c2ccccc2Cl)cc1` (racemic) [Epoxiconazol, (2RS,3SR)-1-[3-(2-chlorophenyl)-2,3-epoxy-2-(4-fluorophenyl)propyl]-1H-1,2,4-triazole], the Observed efficacy was found to be 4% in the assay on Pyricularia oryzae (0.063 ppm) and 40% with Pyricularia oryzae (1 ppm).

For `CC(C)OC(=O)N[C@H](C(=O)N[C@H](C)c1nc2ccc(F)cc2s1)C(C)C` [Benthivalicarb, isopropyl {(S)-1-[(1R)-1-(6-fluorobenzothiazol-2-yl)-ethylcarbamoyl]-2-methylpropyl}carbamate], in the assay on Colleotrichum truncatum, the inhibition of growth at 4 ppm worked out at 0%. Besides, the Observed efficacy with Alternaria solani is recorded as 0%. For the compound `O=C1C2CC=CCC2C(=O)N1SC(Cl)(Cl)Cl` (stereo not drawn) [Captan, N-(trichloromethylthio)cyclohex-4-ene-1,2-dicarboximide], in the assay on Colleotrichum truncatum (7 days after inoculation), the inhibition of growth at 1 ppm was 49%. As for `CO/N=C(/C1=NOCCO1)c1ccccc1Oc1ncnc(Oc2ccccc2Cl)c1F` [Fluoxastrobin, (E)-{2-[6-(2-chlorophenoxy)-5-fluoropyrimidin-4-yloxy]phenyl}(5,6-dihydro-1,4,2-dioxazin-3-yl)methanone O-methyloxime], the inhibition of growth at 1 ppm in the assay on Colleotrichum truncatum (7 days after inoculation) was determined as 32%. As for `CC(C)NC(=O)N1CC(=O)N(c2cc(Cl)cc(Cl)c2)C1=O` [Iprodion, N-isopropyl-3-(3,5-dichlorophenyl)-2,4-dioxoimidazolidine-1-carboxamide], in the assay on Colleotrichum truncatum (7 days after inoculation), the inhibition of growth at 1 ppm is 7%. Take `CC1(C)CCC(Cc2ccc(Cl)cc2)C1(O)Cn1cncn1` (stereo not drawn) [Metconazol, 5-(4-chlorobenzyl)-2,2-dimethyl-1-[1,2,4]triazol-1-ylmethylcyclopentanol]: the Observed efficacy stood at 0% with Pyricularia oryzae (0.063 ppm), 5% in the assay with Pyricularia oryzae (0.25 ppm) and 31% with Fusarium culmorum. `COC=C(C(=O)OC)c1ccccc1COc1cccc(C(F)(F)F)n1` [Picoxystrobin, methyl 3-methoxy-2-[2-(6-trifluoromethylpyridin-2-yloxymethyl)phenyl]-acrylate]: the inhibition of growth at 0.25 ppm with Colleotrichum truncatum (0.25 ppm, 7 days after inoculation) was found to be 32%. As to `Cc1cc(C)nc(Nc2ccccc2)n1` [Pyrimethanil, 4,6-dimethylpyrimidin-2-ylphenylamine], the inhibition of growth at 4 ppm with Colleotrichum truncatum (setting [1]) came out at 7%. In the case of `CC(C)(C)C(O)(CCc1ccc(Cl)cc1)Cn1cncn1` (stereo not drawn) [Tebuconazole, 1-(4-chlorophenyl)-4,4-dimethyl-3-[1,2,4]triazol-1-ylmethylpentan-3-ol], the inhibition of growth at 4 ppm in the assay on Colleotrichum truncatum (setting [1]) stood at 0%. The same compound returned an Observed efficacy with Alternaria solani of 0%. On to `CC1(C)CC/C(=C\c2ccc(Cl)cc2)C1(O)Cn1cncn1` (stereo not drawn) [Triticonazol, (5E)-5-[(4-chlorophenyl)methylene]-2,2-dimethyl-1-(1H-1,2,4-triazol-1-ylmethyl)cyclopentanol], for which the inhibition of growth at 1 ppm with Colleotrichum truncatum (7 days after inoculation) came to 7%.

For the origin of these results see patent US8349877B2, “Ternary fungicidal compositions comprising boscalid and chlorothalonil” (BASF SE, priority 2007, dated 2013).
